Assay results reported in paper PMC10976160, “Comparative Pharmacokinetics Research of 13 Bioactive Components of Jieyu Pills in Control and Attention Deficit Hyperactivity Disorder Model Rats Based on UPLC-Orbitrap Fusion MS” (Molecules, 2024).
Where two headings read alike, the source gives them in different places.

Columns and labels:
[1] = Pharmacokinetics in control rats after gavage of JYPs; assay type: in vivo, Sprague Dawley (SD) rats; conditions: for half-life / Tmax / AUC(0-inf) / AUC(0-t) / Cmax / MRT inf / MRT last: male, rat, plasma; for Tmax: po; for MRT inf: read-out: MRT(0-∞); for MRT last: read-out: MRT(0-t)
Description: According to the established method for the analysis of serum biological samples, the pharmacokinetics of various components of rat serum were investigated after the administration of different dosages of JYPs to control rats.
For the control experiment, healthy male Sprague Dawley (SD) rats of SPF grade ([…] ± 20 g) were purchased from Sipeifu (Beijing) Biotechnology Co., Ltd. (Beijing, China), Animal Quality Certificate No. 110324220102348616. For the ADHD model rats, healthy male SHR rats of SPF grade, weighing 220 ± 20 g, were purchased from SBF (Beijing) Biotechnology Co., Ltd. (Beijing, China), License No. SCXK (Yu) 2019-0010. The animals were accommodated in the Animal Center of Henan University of Traditional Chinese Medicine, which successfully underwent an ethical audit with ethics number DWLL202208003. The animals were bred under controlled conditions at a temperature of 24 °C and a relative humidity of 50 ± 2%. Before the experiment, the animals abstained from eating for 12 h and had unrestricted access to water. The feeding and experimental research conducted on the experimental animals adhered to the laws outlined in the Management of Experimental Animals in Henan Province.
JYPs were ground into a fine powder and sieved through 60-mesh sieves; then, 20 g of fine JYP powder was taken, having been weighed precisely. A precise volume of 50 mL of pure water was added and mixed well to prepare a 0.4 g/mL suspension solution of JYPs, which was then stored in the refrigerator at 4 °C.
This study involved 24 healthy male SD rats with a body mass of 220 ± 20 g and 24 healthy male ADHD rats with a body mass of 220 ± 20 g. Subjects abstained from food for a duration of 12 h before the experiment and consumed water without restriction. Both kinds of rats were randomly divided into four groups: a blank group, given an equal dose of water intragastrically, and 3 different administration groups: rats given the equivalent human dose of JYPs by gavage in doses of 1.080 g/kg/d, 2.160 g/kg/d, and 4.320 g/kg/d. Tail vein blood was collected at 0.083, 0.25, 0.5, 0.75, 1, 1.5, 2, 3, 4, 6, 8, 12, 18, and 24 h after dosing. About 0.5 mL of blood was collected in sodium heparin centrifugal tubes, then centrifuged at 4 °C for 10 min at a speed of 3500r/min. We took the upper layer and placed it at −80 °C for preservation.
We took 200 μL of plasma, added 600 μL of methanol solution and 50 μL of internal standard (100 ng/mL), and subjected it to shaking for 5 min, followed by centrifugation at 4 °C at 12,000 r/min for 10 min. The supernatant was collected and allowed to dry, then reconstituted with 50 μL of 50% methanol and centrifuged at 4 °C at 14,000 r/min for a further 10 min. The supernatant after this process was taken as the test solution. A volume of 5 μL was used for UPLC-MS analysis. The drug concentration in plasma was calculated with the aid of the internal standard.
Chromatographic conditions: Hypersil GOLD (100 × 2.1 mm, 1.9 μm) column; column temperature 35 °C; mobile phase acetonitrile (A)/0.1% formic acid aqueous solution (B); gradient elution; gradient elution program: 0–0.5 min (95% B–95% B), 0.5–8 min (95% B–50% B), 8–14 min (50% B–20% B), 14–20 min (20% B–5% B), 20–22 min (5% B–5% B), 22–25 min (95% B–95% B); flow rate 0.2 mL/min; injection volume 5 μL.

[2] = set-up: method as in PMID 32135035; conditions: rats, oral dosing; cited from earlier work
[3] = Sprague Dawley, oral JYPs, range over compounds and doses, read-out: half-life (t1/2)
[4] = Sprague Dawley, oral JYPs, read-out: peak time (Tmax)
[5] = Sprague-Dawley, 1.08 g/kg/day, oral JYPs low dose 1.080 g/kg/d (1st of 3 values)
[6] = Sprague-Dawley, 1.08 g/kg/day, oral JYPs low dose 1.080 g/kg/d (1st of 3 values), read-out: t1/2 (converted)
[7] = Sprague-Dawley, 2.16 g/kg/day, oral JYPs medium dose 2.160 g/kg/d (2nd of 3 values)
[8] = Sprague-Dawley, 2.16 g/kg/day, oral JYPs medium dose 2.160 g/kg/d (2nd of 3 values), read-out: t1/2 (converted)
[9] = Sprague-Dawley, 4.32 g/kg/day, oral JYPs high dose 4.320 g/kg/d (3rd of 3 values)
[10] = Sprague-Dawley, 4.32 g/kg/day, oral JYPs high dose 4.320 g/kg/d (3rd of 3 values), read-out: t1/2 (converted)
[11] = Sprague-Dawley, 1.08 g/kg/day, oral JYPs low dose 1.080 g/kg/d (1st of 3 values), read-out: Tmax
[12] = Sprague-Dawley, 2.16 g/kg/day, oral JYPs medium dose 2.160 g/kg/d (2nd of 3 values), read-out: Tmax
[13] = oral JYPs high dose 4.320 g/kg/d (3rd of 3 values)
[14] = oral JYPs low dose 1.080 g/kg/d (1st of 3 values)
[15] = oral JYPs medium dose 2.160 g/kg/d (2nd of 3 values)
[16] = Sprague-Dawley, 4.32 g/kg/day, oral JYPs high dose 4.320 g/kg/d (3rd of 3 values), read-out: Tmax

C[C@H]1O[C@@H](O[C@H]2CC[C@@]3(C)[C@@H](CC[C@]4(C)[C@@H]3C=C[C@]35OC[C@@]6(CCC(C)(C)C[C@H]63)[C@@H](O)C[C@]54C)[C@]2(C)CO)[C@H](O)[C@@H](O[C@@H]2O[C@H](CO)[C@@H](O)[C@H](O)[C@H]2O)[C@H]1O [Saikosaponin A]
half-life [1, 3]: 7.52 to 13.7 h
Tmax [1, 4]: < 1 h
AUC(0-inf) [1, 5]: 135 ± 49.8 ng·h/mL
AUC(0-t) [1, 5]: 120 ± 40.6 ng·h/mL
Cmax [1, 5]: 38.9 ± 10.4 ng/mL
MRT inf [1, 5]: 9.57 ± 3.88 h
half-life [1, 6]: 7.52 ± 2.66 h
AUC(0-t) [1, 7]: 149 ± 49.5 ng·h/mL
Cmax [1, 7]: 47.4 ± 11.7 ng/mL
MRT last [1, 7]: 6.42 ± 0.6 h
MRT inf [1, 7]: 13.3 ± 9.41 h
half-life [1, 8]: 10.8 ± 9.21 h
AUC(0-inf) [1, 9]: 245 ± 44.7 ng·h/mL
AUC(0-t) [1, 9]: 221 ± 42.5 ng·h/mL
Cmax [1, 9]: 67.4 ± 14.2 ng/mL
MRT last [1, 9]: 6.07 ± 1.19 h
MRT inf [1, 9]: 9.11 ± 3.69 h
half-life [1, 10]: 7.8 ± 3.3 h
Tmax [1, 11]: 0.53 ± 0.22 h
Tmax [1, 12]: 0.39 ± 0.17 h
AUMC(0-t) [1, 13]: 1333.05± 317.31 ng/mL*(h)²
AUMC(0-ꝏ) [1, 13]: 2265.45± 1085.76 ng/mL*(h)²
Clearances [1, 13]: 4464.90 ± 760.17 mL/h
AUMC(0-t) [1, 14]: 792.28± 390.55 ng/mL*(h)²
AUMC(0-ꝏ) [1, 14]: 1355.37± 1006.84 ng/mL*(h)²
MRT(0-t) [1, 14]: 6.55 ± 1.64 h
Vss [1, 14]: 21125.87 ± 12315.99 mL
AUC(0-∞) [1, 15]: 177.04 ± 46.52 ng·h/mL
AUMC(0-t) [1, 15]: 935.87± 261.97 ng/mL*(h)²
AUMC(0-ꝏ) [1, 15]: 2307.92± 1659.75 ng/mL*(h)²
Clearances [1, 15]: 3201.17 ± 894.28 mL/h
Vss [1, 15]: 42581.43 ± 30523.07 mL

CCC/C=C1\OC(=O)C2=C1CCC=C2 [Z-Ligustilide]
half-life [1, 3]: 14.4 to 24 h
Tmax [1, 4]: < 2 h
AUC(0-inf) [1, 5]: 40.8 ± 9.33 ng·h/mL
AUC(0-t) [1, 5]: 28.7 ± 8.22 ng·h/mL
Cmax [1, 5]: 3.37 ± 1.11 ng/mL
MRT last [1, 5]: 8.54 ± 1.12 h
MRT inf [1, 5]: 20.4 ± 8.24 h
half-life [1, 6]: 15.4 ± 5.99 h
AUC(0-inf) [1, 7]: 58.6 ± 20.7 ng·h/mL
AUC(0-t) [1, 7]: 32.7 ± 6.04 ng·h/mL
Cmax [1, 7]: 4.47 ± 1.9 ng/mL
MRT last [1, 7]: 8.96 ± 0.63 h
MRT inf [1, 7]: 32 ± 20.9 h
half-life [1, 8]: 24 ± 16.9 h
AUC(0-inf) [1, 9]: 53.4 ± 9.38 ng·h/mL
AUC(0-t) [1, 9]: 36.5 ± 7.42 ng·h/mL
Cmax [1, 9]: 5.27 ± 1.27 ng/mL
MRT last [1, 9]: 8.76 ± 0.37 h
MRT inf [1, 9]: 21.6 ± 6.2 h
half-life [1, 10]: 16.4 ± 5.4 h
Tmax [1, 11]: 1.67 ± 0.52 h
Tmax [1, 12]: 1.17 ± 0.41 h
Tmax [1, 16]: 1.13 ± 0.44 h
AUMC(0-t) [1, 13]: 319.41± 64.35 ng/mL*(h)²
AUMC(0-ꝏ) [1, 13]: 1163.41± 438.24 ng/mL*(h)²
AUMC(0-t) [1, 14]: 244.45± 72.75 ng/mL*(h)²
AUMC(0-ꝏ) [1, 14]: 839.61± 369.47 ng/mL*(h)²
AUMC(0-t) [1, 15]: 291.74± 50.18 ng/mL*(h)²
AUMC(0-ꝏ) [1, 15]: 2206.47± 2197.92 ng/mL*(h)²
oral bioavailability [2]: relatively poor

C[C@H]1O[C@@H](O[C@H]2CC[C@@]3(C)[C@@H](CC[C@]4(C)[C@@H]3C=C[C@]35OC[C@@]6(CCC(C)(C)C[C@H]63)[C@H](O)C[C@]54C)[C@]2(C)CO)[C@H](O)[C@@H](O[C@@H]2O[C@H](CO)[C@@H](O)[C@H](O)[C@H]2O)[C@H]1O [Saikosaponin D]
half-life [1, 3]: 7.52 to 13.7 h
Tmax [1, 4]: < 1 h
AUC(0-inf) [1, 5]: 97.3 ± 56.5 ng·h/mL
AUC(0-t) [1, 5]: 79.6 ± 44.6 ng·h/mL
Cmax [1, 5]: 21.5 ± 5.52 ng/mL
MRT last [1, 5]: 7.08 ± 1.57 h
MRT inf [1, 5]: 13.4 ± 4.81 h
half-life [1, 6]: 11.4 ± 4.14 h
AUC(0-inf) [1, 7]: 117 ± 33.2 ng·h/mL
AUC(0-t) [1, 7]: 96.8 ± 29.3 ng·h/mL
Cmax [1, 7]: 30.1 ± 6.87 ng/mL
MRT last [1, 7]: 6.87 ± 0.65 h
MRT inf [1, 7]: 13.3 ± 6.43 h
half-life [1, 8]: 10.9 ± 6.69 h
AUC(0-inf) [1, 9]: 157 ± 34.9 ng·h/mL
AUC(0-t) [1, 9]: 116 ± 12.3 ng·h/mL
Cmax [1, 9]: 41.8 ± 17.7 ng/mL
MRT last [1, 9]: 7.1 ± 1.12 h
MRT inf [1, 9]: 16.6 ± 6.52 h
half-life [1, 10]: 13.7 ± 5.61 h
Tmax [1, 11]: 0.43 ± 0.23 h
Tmax [1, 12]: 0.54 ± 0.1 h
Tmax [1, 16]: 0.33 ± 0.13 h
AUMC(0-t) [1, 13]: 830.12± 197.07 ng/mL*(h)²
AUMC(0-ꝏ) [1, 13]: 2785.93± 1472.47 ng/mL*(h)²
Vss [1, 13]: 68432.42 ± 15413.77 mL
AUMC(0-t) [1, 14]: 592.40± 473.29 ng/mL*(h)²
AUMC(0-ꝏ) [1, 14]: 1331.60± 1006.07 ng/mL*(h)²
Clearances [1, 14]: 2081.51 ± 796.95 mL/h
Vss [1, 14]: 27762.67 ± 16738.07 mL
AUMC(0-t) [1, 15]: 662.12± 211.50 ng/mL*(h)²
AUMC(0-ꝏ) [1, 15]: 1586.66± 988.85 ng/mL*(h)²
Vss [1, 15]: 41378.73 ± 24017.48 mL
